Values quoted from earlier work, collected in patent US20220331235A1, “COMPOSITIONS FOR ORAL MICROADHESIVE DOSAGE FORMS” (FP NUTRACEUTICALS, LLC, priority 2018, published 2022).

Legend:
[1] = rat brain
[2] = vitamin B6: from food or supplements

[O-2].[Zn+2] [Zn-oxide]
plasma zinc rankings based on area under the curve and rank results per person: glycinate>gluconate>picolinate=oxide

O=C([O-])c1ccccn1.O=C([O-])c1ccccn1.[Zn+2] [Zn-picolinate]
plasma zinc rankings based on area under the curve and rank results per person: glycinate>gluconate>picolinate=oxide

O=C([O-])c1cc(=O)[nH]c(=O)[nH]1.[Li+] [lithium orotate]
level in the brain compared to the carbonate form [1]: three-fold higher

Cc1ncc(CO)c(CO)c1O [vitamin B6, pyridoxine]
bioavailability [2]: 75-100%

NCC(=O)[O-].NCC(=O)[O-].[Zn+2] [zinc glycinate]
bioavailability among four forms of zinc (oxide, picolinate, gluconate, glycinate) (acute uptake): highest bioavailability
plasma zinc rankings based on area under the curve and rank results per person: glycinate>gluconate>picolinate=oxide
increase in bioavailability over zinc gluconate (versus second most-bioavailable form): 43.4%

cobalamin [vitamin B12]
bioavailability [2]: 1-2%

zinc gluconate
plasma zinc rankings based on area under the curve and rank results per person: glycinate>gluconate>picolinate=oxide
